# From ChEMBL document CHEMBL1909294, “Translating clinical findings into knowledge in drug safety evaluation--drug induced liver injury prediction system (DILIps)” (PLoS Comput Biol, 2011)
# Tests used:
# [1] = tested on: Hepatotoxicity;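 on HepSE bilirubinemia: bilirubinemia hepatic side effect score drawn from the DILIps training data, a prediction system for drug-induced liver injury; call rule not given here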;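 on HepSE cholecystitis: Cholecystitis-related hepatic side effect score drawn from the DILIps (drug-induced liver injury prediction) training data set; call rule not given here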;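 on HepSE cholelithiasis: hepatic side effect score for cholelithiasis, drawn from the DILIps training data for predicting drug-induced liver injury; call rule not given here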;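 on HepSE cirrhosis: cirrhosis hepatic side effect score taken from the DILIps (drug-induced liver injury prediction) training set; call rule not given here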;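 on HepSE elevated liver function tests: hepatic side effect score for raised liver function tests, as recorded in the DILIps training set used for predicting drug-induced liver injury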; on HepSE hepatic failure: call rule not given here;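 on HepSE hepatomegaly: hepatic side effect score for hepatomegaly, taken from the training set of the DILIps drug-induced liver injury prediction system; call rule not given here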
# [2] = tested on: Hepatotoxicity; remark: listed apart in the source;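 on HepSE bilirubinemia: bilirubinemia hepatic side effect score drawn from the DILIps training data, a prediction system for drug-induced liver injury; call rule not given here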;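 on HepSE cholecystitis: Cholecystitis-related hepatic side effect score drawn from the DILIps (drug-induced liver injury prediction) training data set; call rule not given here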;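 on HepSE cholelithiasis: hepatic side effect score for cholelithiasis, drawn from the DILIps training data for predicting drug-induced liver injury; call rule not given here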;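 on HepSE cirrhosis: cirrhosis hepatic side effect score taken from the DILIps (drug-induced liver injury prediction) training set; call rule not given here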;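 on HepSE elevated liver function tests: hepatic side effect score for raised liver function tests, as recorded in the DILIps training set used for predicting drug-induced liver injury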; on HepSE hepatic failure: call rule not given here;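 on HepSE hepatomegaly: hepatic side effect score for hepatomegaly, taken from the training set of the DILIps drug-induced liver injury prediction system; call rule not given here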
# [3] = tested on: Hepatotoxicity; remark: listed apart in the source;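 on HepSE bilirubinemia: bilirubinemia hepatic side effect score drawn from the DILIps training data, a prediction system for drug-induced liver injury; call rule not given here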;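 on HepSE cholecystitis: Cholecystitis-related hepatic side effect score drawn from the DILIps (drug-induced liver injury prediction) training data set; call rule not given here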;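 on HepSE cholelithiasis: hepatic side effect score for cholelithiasis, drawn from the DILIps training data for predicting drug-induced liver injury; call rule not given here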;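 on HepSE cirrhosis: cirrhosis hepatic side effect score taken from the DILIps (drug-induced liver injury prediction) training set; call rule not given here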;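 on HepSE elevated liver function tests: hepatic side effect score for raised liver function tests, as recorded in the DILIps training set used for predicting drug-induced liver injury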; on HepSE hepatic failure: call rule not given here
# [4] = tested on: Hepatotoxicity; remark: listed apart in the source;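 on HepSE bilirubinemia: bilirubinemia hepatic side effect score drawn from the DILIps training data, a prediction system for drug-induced liver injury; call rule not given here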;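 on HepSE cholecystitis: Cholecystitis-related hepatic side effect score drawn from the DILIps (drug-induced liver injury prediction) training data set; call rule not given here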;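 on HepSE cholelithiasis: hepatic side effect score for cholelithiasis, drawn from the DILIps training data for predicting drug-induced liver injury; call rule not given here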;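 on HepSE cirrhosis: cirrhosis hepatic side effect score taken from the DILIps (drug-induced liver injury prediction) training set; call rule not given here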;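 on HepSE elevated liver function tests: hepatic side effect score for raised liver function tests, as recorded in the DILIps training set used for predicting drug-induced liver injury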; on HepSE hepatic failure: call rule not given here
# [5] = tested on: Hepatotoxicity; remark: listed apart in the source; on HepSE hepatic failure: call rule not given here
# [6] = tested on: Hepatotoxicity; remark: listed apart in the source; on HepSE hepatic failure: call rule not given here
# [7] = tested on: Hepatotoxicity; remark: listed apart in the source
# [8] = tested on: Hepatotoxicity; remark: listed apart in the source
# [9] = tested on: Hepatotoxicity; remark: listed apart in the source
# [10] = tested on: Hepatotoxicity; remark: listed apart in the source
# [11] = tested on: Hepatotoxicity; remark: listed apart in the source
# [12] = tested on: Hepatotoxicity; remark: listed apart in the source
# [13] = tested on: Hepatotoxicity; remark: listed apart in the source
# [14] = tested on: Hepatotoxicity; remark: listed apart in the source
Structure (SMILES),HepSE_bilirubinemia [1],HepSE_cholecystitis [2],HepSE_cholelithiasis [3],HepSE_cirrhosis [4],HepSE_elevated liver function tests [5],HepSE_hepatic failure [6],HepSE_hepatic necrosis [7],HepSE_hepatitis [8],HepSE_hepatomegaly [9],HepSE_jaundice [10],HepSE_liver disease [11],HepSE_liver fatty [12],HepSE_liver function tests abnormal [13],HepSE_Combined Scores [14]
COc1ccccc1OCC(O)COC(N)=O (configuration not stated) [METHOCARBAMOL],0,0,0,0,0,0,0,0,0,1,0,0,0,1
C=CCC1(C(C)C#CCC)C(=O)N=C(O)N(C)C1=O (configuration not stated) [METHOHEXITAL],0,0,0,0,0,0,0,0,0,0,0,0,1,1
CN(Cc1cnc2nc(N)nc(N)c2n1)c1ccc(C(=O)N[C@@H](CCC(=O)O)C(=O)O)cc1 [METHOTREXATE],1,0,0,1,1,1,0,1,0,0,0,0,0,5
COc1c2occc2cc2ccc(=O)oc12 [METHOXSALEN],0,0,0,0,0,0,0,0,0,0,0,0,0,0
CN1C(=O)CC(C)(c2ccccc2)C1=O (configuration not stated) [METHSUXIMIDE],0,0,0,0,0,0,0,0,0,0,0,0,0,0
CN1C(CCl)Nc2cc(Cl)c(S(N)(=O)=O)cc2S1(=O)=O (configuration not stated) [METHYCLOTHIAZIDE],0,0,0,0,0,0,0,0,0,1,0,0,0,1
COC(=O)CCC(=O)CN [METHYL AMINOLEVULINATE],0,0,0,0,0,0,0,0,0,0,0,0,0,0
C[C@](N)(Cc1ccc(O)c(O)c1)C(=O)O [METHYLDOPA],0,0,0,0,0,0,0,1,0,1,0,0,1,3
CC[C@@H](CO)NC(=O)[C@@H]1C=C2c3cccc4[nH]cc(c34)C[C@H]2N(C)C1 [METHYLERGONOVINE],0,0,0,0,0,0,0,0,0,0,0,0,0,0
COC(=O)C(c1ccccc1)C1CCCCN1 (configuration not stated) [METHYLPHENIDATE],0,0,0,0,0,0,0,0,0,0,0,0,1,1
C[C@H]1C[C@@H]2[C@H]([C@@H](O)C[C@@]3(C)[C@H]2CC[C@]3(O)C(=O)CO)[C@@]2(C)C=CC(=O)C=C12 [METHYLPREDNISOLONE],0,0,0,0,0,0,0,0,0,0,0,0,0,0
C[C@]12CCC(=O)C=C1CC[C@@H]1[C@@H]2CC[C@@]2(C)[C@H]1CC[C@]2(C)O [METHYLTESTOSTERONE],0,0,0,0,0,0,0,0,0,1,0,0,0,1
CC[C@@H](CO)NC(=O)[C@@H]1C=C2c3cccc4c3c(cn4C)C[C@H]2N(C)C1 [METHYSERGIDE],0,0,0,0,0,0,0,0,0,0,0,0,0,0
